Counter-ions that a name gives are not always drawn.
Assays:
[1] = In vitro stability in rat plasma (HPLC detection); assay type: in vitro ADME; conditions: 37° C., read-out: half-life of degradation to liberate compound (A)
Procedure: 1 mg of substance is dissolved in 1.25 ml of dimethyl sulphoxide. Then 1.25 ml of water are added. 500 μl of this sample solution are mixed with 500 μl of rat plasma at 37° C. and shaken. A first sample (10 μl) is immediately taken for HPLC analysis. In the period up to 2 h after the start of incubation, further aliquots are taken after 2, 5, 10, 30, 60 and 90 min, and the content of the respective test substance and of the active ingredient compound (A) liberated therefrom is determined.
Agilent 1100 with DAD (G1314A), binary pump (G1312A), autosampler (G1329A), column oven (G1316A), thermostat (G1330A); column: Kromasil 100 C18, 250 mm×4.6 mm, 5 μm; column temperature: 30° C.; eluent A: water+5 ml of perchloric acid/liter, eluent B: acetonitrile.

[2] = Determination of the solubility (suspension shaken 24 h at room temperature, HPLC); assay type: physicochemical; conditions: thermodynamic from solid
Procedure: […] This suspension is shaken at room temperature for 24 h. After ultracentrifugation at 224 000 g for 30 min, the supernatant is diluted with DMSO and analysed by HPLC. A two-point calibration plot of the test compound in DMSO is used for quantification.
Agilent 1100 with DAD (G1315A), quat. pump (G1311A), autosampler CTC HTS PAL, degasser (G1322A) and column thermostat (G1316A); column: Zorbax Extend-C18 3.5μ; temperature: 40° C.; eluent A: water+5 ml of perchloric acid/liter, eluent B: acetonitrile; flow rate: 0.7 ml/min; gradient: 0-0.5 min 98% A, 2% B; ramp 0.5-4.5 min 10% A, 90% B; 4.5-6 min 10% A, 90% B; ramp 6.5-6.7 min 98% A, 2% B; 6.7-7.5 min 98% A, 2% B.

[3] = Stability in buffer at various pH values (HPLC, 37° C., 24 h); assay type: physicochemical
Procedure: 0.3 mg of the test substance is weighed into a 2 ml HPLC vial and 0.5 ml of acetonitrile is added. The substance is dissolved by putting the sample vessel in an ultrasonic bath for about 10 seconds. Then 0.5 ml of the respective buffer solution is added, and the sample is again treated in the ultrasonic bath.
• pH 4.0:1 liter of Millipore water is adjusted to pH 4.0 with 1 N hydrochloric acid; • pH 7.4: 90 g of sodium chloride, 13.61 g of potassium dihydrogen phosphate and 83.35 g of 1 M sodium hydroxide solution are made up to 1 liter with Millipore water and then diluted 1:10.
5 μl portions of the test solution are analysed by HPLC for their content of unchanged test substance every hour over a period of 24 hours at 37° C. The percentage areas of the appropriate peaks are used for quantification.
Agilent 1100 with DAD (G1314A), binary pump (G1312A), autosampler (G1329A), column oven (G1316A), thermostat (G1330A); column: Kromasil 100 C18, 125 mm×4.6 mm, 5 μm; column temperature: 30° C.; eluent A: water+5 ml of perchloric acid/liter, eluent B: acetonitrile.
The ratios of the peak areas (F) at the respective time points in relation to the peak areas at the starting time are shown in Table 2 for representative exemplary embodiments: […]

[4] = In vitro stability in rat plasma (LC/MS-MS detection); assay type: in vitro ADME, Wistar rats; conditions: Wistar rat plasma, 37° C.
Procedure: A defined plasma volume (e.g. 2.0 ml) is warmed to 37° C. in a closed test tube in a waterbath. After the intended temperature is reached, a defined amount of the test substance is added as solution (volume of the solvent not more than 2% of the plasma volume). The plasma is shaken and a first sample (50-100 μl) is immediately taken. Then 4-6 further aliquots are taken in the period up for 2 h after the start of incubation.
Acetonitrile is added to the plasma samples to precipitate proteins. After centrifugation, the test substance and, where appropriate, known cleavage products of the test substance in the supernatant are determined quantitatively with a suitable LC/MS-MS method.
The concentrations c of the compound of Example 6 and of the active ingredient compound (A) liberated therefrom determined at various times in the plasma of Wistar rats are shown in Table 3:
The concentrations c of the compound of Example 13 and of the active ingredient compound (A) liberated therefrom determined at various times in the plasma of Wistar rats are shown in Table 4: […]

[5] = 5% dextrose adjusted to pH 4 with hydrochloric acid, pH 4, saline or isotonic
[6] = buffer pH 4, 37° C., hydrochloride

SMILES | half-life at 0.2 mg/ml [1] | solubility at 24 h ([2]; dilute hydrochloric acid (pH 4), pH 4, aqueous buffer, room temperature, 24 h) | % test substance after 4 h [F(t = 4 h) × 100/F(t = 0 h)] ([3]; buffer pH 4, 37° C.) | % Test substance after 24 h [F(t = 24 h) × 100/F(t = 0 h)] ([3]; buffer pH 4, 37° C.) | % test substance after 4 h [F(t = 4 h) × 100/F(t = 0 h)] ([3]; buffer pH 7.4, 37° C.) | % Test substance after 24 h [F(t = 24 h) × 100/F(t = 0 h)] ([3]; buffer pH 7.4, 37° C.) | c of test substance ([4]; incubation time 0 h) | c of test substance ([4]; incubation time 0.08 h) | c of test substance ([4]; incubation time 0.17 h) | solubility at 24 h [2, 5] | % test substance after 4 h [F(t = 4 h) × 100/F(t = 0 h)] [3, 6] | % Test substance after 24 h [F(t = 24 h) × 100/F(t = 0 h)] [3, 6]
NCCOCC(=O)N(C[C@H]1CN(c2ccc(N3CCOCC3=O)cc2)C(=O)O1)C(=O)c1ccc(Cl)s1 [Example 23, N-[(2-Aminoethoxy)acetyl]-5-chloro-N-({(5S)-2-oxo-3-[4-(3-oxomorpholin-4-yl)phenyl]-1,3-oxazolidin-5-yl}methyl)thiophene-2-carboxamide hydrochloride] | < 2 min |  |  |  |  |  |  |  |  |  |  | 
CC(C)[C@@H](N)C(=O)OCC(=O)N(C[C@H]1CN(c2ccc(N3CCOCC3=O)cc2)C(=O)O1)C(=O)c1ccc(Cl)s1 [Example 6, 2-[[(5-Chloro-2-thienyl)carbonyl]({(5S)-2-oxo-3-[4-(3-oxomorpholin-4-yl)phenyl]-1,3-oxazolidin-5-yl}methyl)amino]-2-oxoethyl D-valinate hydrochloride] |  | 860 µg/mL | 100% | 98% | 90% | 59% | 0.403 mg/L | 0.0756 mg/L | 0.0079 mg/L |  |  | 
CNCCCC(=O)N(C[C@H]1CN(c2ccc(N3CCOCC3=O)cc2)C(=O)O1)C(=O)c1ccc(Cl)s1 [Example 13, 5-Chloro-N-[4-(methylamino)butanoyl]-N-({(5S)-2-oxo-3-[4-(3-oxomorpholin-4-yl)phenyl]-1,3-oxazolidin-5-yl}methyl)thiophene-2-carboxamide hydrochloride] | < 2 min |  |  |  |  |  | 0.5 mg/L |  |  | 2700 µg/mL | 99% | 91%
NCCCCCC(=O)N(C[C@H]1CN(c2ccc(N3CCOCC3=O)cc2)C(=O)O1)C(=O)c1ccc(Cl)s1 [Example 21, N-(6-Aminohexanoyl)-5-chloro-N-({(5S)-2-oxo-3-[4-(3-oxomorpholin-4-yl)phenyl]-1,3-oxazolidin-5-yl}methyl)thiophene-2-carboxamide hydrochloride] |  |  | 100% | 100% | 92% | 66% |  |  |  | > 3000 µg/mL |  | 
NCCCCC(=O)N(C[C@H]1CN(c2ccc(N3CCOCC3=O)cc2)C(=O)O1)C(=O)c1ccc(Cl)s1 [Example 20, N-(5-Aminopentanoyl)-5-chloro-N-({(5S)-2-oxo-3-[4-(3-oxomorpholin-4-yl)phenyl]-1,3-oxazolidin-5-yl}methyl)thiophene-2-carboxamide hydrochloride] | < 2 min |  | 98% | 90% | 0% | 0% |  |  |  | > 3000 µg/mL |  | 
CNCCCCC(=O)N(C[C@H]1CN(c2ccc(N3CCOCC3=O)cc2)C(=O)O1)C(=O)c1ccc(Cl)s1 [Example 17, 5-Chloro-N-[5-(methylamino)pentanoyl]-N-({(5S)-2-oxo-3-[4-(3-oxomorpholin-4-yl)phenyl]-1,3-oxazolidin-5-yl}methyl)thiophene-2-carboxamide hydrochloride] | < 2 min |  |  |  |  |  |  |  |  |  | 83% | 55%
CCCCNCCCC(=O)N(C[C@H]1CN(c2ccc(N3CCOCC3=O)cc2)C(=O)O1)C(=O)c1ccc(Cl)s1 [Example 22, N-[4-(Butylamino)butanoyl]-5-chloro-N-({(5S)-2-oxo-3-[4-(3-oxomorpholin-4-yl)phenyl]-1,3-oxazolidin-5-yl}methyl)thiophene-2-carboxamide hydrochloride] | < 2 min |  | 100% | 98% |  |  |  |  |  | > 3000 µg/mL |  | 
